# Experimental data from ChEMBL document CHEMBL1201862, “PubChem BioAssay data set” (2004).
# Where a name gives a salt, the structure may show the parent alone. Active and inactive are the calls of the source.
# Tests used:
# Phospholipase D2 = Phospholipase D2 (Homo sapiens, UniProt O14939); experiment: cellular phospholipase D2 inhibition IC50 – cell-based, dose response (AID 602147); type: functional;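 further: cellular assay in HEK293 cells overexpressing GFP-tagged PLD2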
# Phospholipase D1 = target: T1, Phospholipase D1 (Homo sapiens, UniProt Q13393); experiment: cellular phospholipase D1 inhibition IC50 – cell-based, dose response (AID 602151); type: functional;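 further: cellular PLD1 assay in Calu-1 cells stimulated with PMA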
# T1 sequence (Q13393 whole entry): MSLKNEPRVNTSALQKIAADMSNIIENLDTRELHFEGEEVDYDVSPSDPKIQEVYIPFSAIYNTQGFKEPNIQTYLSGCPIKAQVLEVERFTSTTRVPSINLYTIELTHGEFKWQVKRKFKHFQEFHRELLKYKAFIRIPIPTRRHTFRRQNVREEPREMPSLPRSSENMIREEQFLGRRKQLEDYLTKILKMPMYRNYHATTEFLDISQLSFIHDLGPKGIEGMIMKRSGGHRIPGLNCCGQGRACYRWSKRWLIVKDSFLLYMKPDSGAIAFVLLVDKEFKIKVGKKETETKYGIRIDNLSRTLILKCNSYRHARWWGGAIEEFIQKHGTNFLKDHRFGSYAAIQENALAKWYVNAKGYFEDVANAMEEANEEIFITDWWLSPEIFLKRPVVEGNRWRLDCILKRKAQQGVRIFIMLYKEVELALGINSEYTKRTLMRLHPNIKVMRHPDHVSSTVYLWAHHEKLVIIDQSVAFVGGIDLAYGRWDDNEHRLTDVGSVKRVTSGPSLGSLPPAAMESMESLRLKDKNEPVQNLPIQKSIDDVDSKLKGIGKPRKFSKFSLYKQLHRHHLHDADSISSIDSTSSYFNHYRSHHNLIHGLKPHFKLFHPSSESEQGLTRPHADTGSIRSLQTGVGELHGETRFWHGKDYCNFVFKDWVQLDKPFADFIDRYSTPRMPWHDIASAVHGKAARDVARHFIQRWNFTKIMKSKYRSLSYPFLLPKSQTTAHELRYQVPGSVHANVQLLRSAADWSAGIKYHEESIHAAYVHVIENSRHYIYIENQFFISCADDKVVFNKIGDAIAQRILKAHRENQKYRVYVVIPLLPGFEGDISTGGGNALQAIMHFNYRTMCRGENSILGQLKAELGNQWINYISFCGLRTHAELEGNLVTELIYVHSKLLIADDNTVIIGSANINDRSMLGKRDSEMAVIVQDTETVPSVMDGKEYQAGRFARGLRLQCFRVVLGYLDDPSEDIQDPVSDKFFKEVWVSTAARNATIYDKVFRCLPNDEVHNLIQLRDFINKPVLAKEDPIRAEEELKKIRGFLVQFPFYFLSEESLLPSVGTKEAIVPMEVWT
# [1] = target: Heat shock protein HSP 90-alpha (Homo sapiens, UniProt P07900); type: functional, organism-based
# INS1 = experiment: INS-1E survival protection against cytokine death – cell-based, luminescence, retest, dose response (AID 449756); type: functional; conditions: Rattus norvegicus;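 further: cell death triggered by IL-1 beta plus TNF-alpha plus IFN-gamma mixture; protective hits raise ATP signal compared with cytokine alone wells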
# [2] = tested on: Streptococcus sp. 'group A'; experiment: Streptococcus pyogenes SK(-)GAS viability under kanamycin – luminescence, BacTiterGlo, confirmation, counter-screen for streptokinase expression inhibitor project, dose response (AID 1900); type: functional, organism-based
# Vero = experiment: viability of Vero cells under compound – cytotoxicity control for flavivirus capping enzyme inhibitors (AID 588742); type: functional; conditions: Chlorocebus sabaeus
# [3] = NIH-3T3 fibroblast cytotoxicity, dose response, cytotoxicity control, cell-based, fluorescence, Alamar Blue, secondary assay (AID 2327); type: functional;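 further: NIH-3T3 mouse fibroblasts cultured with fluconazole at 8 µg/mL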
# Streptococcus = experiment: GAS UMAA2166 growth inhibition – luminescence, BacTiterGlo, counter-screen for streptokinase expression inhibitor project, dose response (AID 1915); type: functional, organism-based;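 further: potency for reduction of bacterial viability or growth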
# [4] = fluconazole-exposed Candida albicans growth modulators – fluorescence, retest, confirmation (AID 2467); type: functional, cell-based
# [5] = target: Glucose-6-phosphate 1-dehydrogenase (Homo sapiens, UniProt P11413); experiment: inhibition of Homo sapiens G6PD, dose series – biochemical, fluorescence, selectivity assay for P. falciparum G6PD inhibitor project, dose response (AID 504792); type: functional
# [6] = target: T2, Apoptotic protease-activating factor 1 (Homo sapiens, UniProt O14727); type: functional
# T2 sequence (O14727 whole entry): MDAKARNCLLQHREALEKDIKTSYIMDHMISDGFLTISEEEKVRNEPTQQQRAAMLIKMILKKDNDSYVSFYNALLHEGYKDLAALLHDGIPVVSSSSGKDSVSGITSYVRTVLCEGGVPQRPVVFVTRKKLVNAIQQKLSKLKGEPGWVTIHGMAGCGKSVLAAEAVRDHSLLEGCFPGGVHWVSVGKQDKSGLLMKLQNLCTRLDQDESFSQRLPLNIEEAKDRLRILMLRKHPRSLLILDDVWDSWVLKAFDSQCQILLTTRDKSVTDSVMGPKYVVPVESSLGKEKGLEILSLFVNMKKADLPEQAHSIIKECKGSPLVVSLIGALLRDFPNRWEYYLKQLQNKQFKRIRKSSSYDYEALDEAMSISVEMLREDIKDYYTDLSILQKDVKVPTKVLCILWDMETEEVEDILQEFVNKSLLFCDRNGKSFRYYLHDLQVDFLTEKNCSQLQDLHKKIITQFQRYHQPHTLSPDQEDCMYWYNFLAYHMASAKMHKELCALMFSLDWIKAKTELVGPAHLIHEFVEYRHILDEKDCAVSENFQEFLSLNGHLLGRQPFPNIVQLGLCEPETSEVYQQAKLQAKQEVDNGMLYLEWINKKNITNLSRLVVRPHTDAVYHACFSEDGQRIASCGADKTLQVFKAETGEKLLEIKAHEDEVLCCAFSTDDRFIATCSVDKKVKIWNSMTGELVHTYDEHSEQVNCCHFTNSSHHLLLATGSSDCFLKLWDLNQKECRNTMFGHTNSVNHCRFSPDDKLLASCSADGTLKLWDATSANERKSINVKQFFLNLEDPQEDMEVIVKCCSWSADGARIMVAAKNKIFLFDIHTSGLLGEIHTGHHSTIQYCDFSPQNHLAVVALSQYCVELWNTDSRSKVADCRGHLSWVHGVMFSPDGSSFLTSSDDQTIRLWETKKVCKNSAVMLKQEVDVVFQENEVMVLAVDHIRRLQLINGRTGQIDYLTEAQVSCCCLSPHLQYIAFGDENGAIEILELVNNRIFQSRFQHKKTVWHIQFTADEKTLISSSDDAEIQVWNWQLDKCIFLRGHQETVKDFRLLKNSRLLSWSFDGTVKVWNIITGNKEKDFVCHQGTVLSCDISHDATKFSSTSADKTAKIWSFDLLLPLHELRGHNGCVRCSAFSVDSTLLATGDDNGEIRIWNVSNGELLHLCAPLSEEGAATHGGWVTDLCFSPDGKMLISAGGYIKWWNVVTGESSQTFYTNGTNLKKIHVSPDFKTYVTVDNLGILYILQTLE
# Phospholipase D2, sequence (O14939 whole entry): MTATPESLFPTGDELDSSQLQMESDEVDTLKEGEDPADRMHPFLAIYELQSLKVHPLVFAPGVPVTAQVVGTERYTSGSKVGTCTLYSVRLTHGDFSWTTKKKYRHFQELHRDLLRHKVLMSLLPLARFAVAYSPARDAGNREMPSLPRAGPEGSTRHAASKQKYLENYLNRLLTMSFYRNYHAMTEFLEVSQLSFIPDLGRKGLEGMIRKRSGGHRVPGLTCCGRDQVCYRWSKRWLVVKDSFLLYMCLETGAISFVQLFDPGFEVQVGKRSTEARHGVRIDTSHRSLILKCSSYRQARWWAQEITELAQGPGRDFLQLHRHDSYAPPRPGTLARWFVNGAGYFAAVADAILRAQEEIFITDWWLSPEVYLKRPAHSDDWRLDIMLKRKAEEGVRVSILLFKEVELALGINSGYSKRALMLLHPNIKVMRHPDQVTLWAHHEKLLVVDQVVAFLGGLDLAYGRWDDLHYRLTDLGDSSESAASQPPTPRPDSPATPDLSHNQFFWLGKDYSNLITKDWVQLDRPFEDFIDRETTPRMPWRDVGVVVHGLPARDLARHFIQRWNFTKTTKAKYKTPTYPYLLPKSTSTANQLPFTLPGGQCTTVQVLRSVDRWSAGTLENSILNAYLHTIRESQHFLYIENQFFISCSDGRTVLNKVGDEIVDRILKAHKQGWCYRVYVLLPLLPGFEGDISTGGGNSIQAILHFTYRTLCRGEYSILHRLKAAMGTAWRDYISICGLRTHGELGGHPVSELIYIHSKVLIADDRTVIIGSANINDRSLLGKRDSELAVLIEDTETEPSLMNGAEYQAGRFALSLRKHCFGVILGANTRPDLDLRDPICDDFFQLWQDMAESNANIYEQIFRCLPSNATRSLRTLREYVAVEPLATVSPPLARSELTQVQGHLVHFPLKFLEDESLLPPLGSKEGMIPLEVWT
# Glucose-6-phosphate 1-dehydrogenase, sequence (P11413 whole entry): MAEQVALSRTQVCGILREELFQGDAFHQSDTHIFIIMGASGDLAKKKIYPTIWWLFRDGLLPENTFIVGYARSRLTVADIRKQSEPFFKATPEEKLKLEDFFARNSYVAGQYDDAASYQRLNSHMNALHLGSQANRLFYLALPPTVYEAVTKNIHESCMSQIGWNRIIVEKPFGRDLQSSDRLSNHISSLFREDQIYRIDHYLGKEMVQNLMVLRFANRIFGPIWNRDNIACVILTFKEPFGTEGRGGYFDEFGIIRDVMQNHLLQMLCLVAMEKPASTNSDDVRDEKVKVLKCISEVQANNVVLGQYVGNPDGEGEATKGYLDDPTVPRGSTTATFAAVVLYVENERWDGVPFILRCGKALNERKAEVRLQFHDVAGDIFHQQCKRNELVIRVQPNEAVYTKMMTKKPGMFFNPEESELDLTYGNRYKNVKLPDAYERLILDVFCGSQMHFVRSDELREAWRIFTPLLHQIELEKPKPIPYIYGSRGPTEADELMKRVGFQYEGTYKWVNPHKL
compound,measurement,setting,value
O=C(N[C@@H](Cc1ccccc1)CN1CCC(n2c(=O)[nH]c3ccccc32)CC1)c1cnc2ccccc2c1,IC50,Phospholipase D2,20 µM (active)
same,IC50,Phospholipase D1,2.8 µM (active)
COc1cccc(N2CCN(CCNC(=O)c3ccc4ccccc4c3)CC2)c1,IC50,Phospholipase D2,18 µM (active)
same,IC50,Phospholipase D1,10 µM (active)
C[C@@H](CN1CCC(n2c(=O)[nH]c3ccc(F)cc32)CC1)NC(=O)c1ccc(F)c(F)c1,IC50,Phospholipase D2,0.315 µM (active)
same,IC50,Phospholipase D1,0.005 µM (active)
CC(=O)NC(c1ccccc1)c1cc(Cl)c2cccnc2c1O (stereo not given),AC50,[1],3.79 µM (active)
same,AC50,INS1,1.2 µM (active)
same,EC50,[2],1.73 µM (active)
same,CC50,Vero,6.04 µM (active)
same,EC50,[3],4.24 µM (active)
same,EC50,Streptococcus,2.71 µM (active)
same,EC50,[4],0.514 µM (active)
CCOC(=O)Nc1ccc(NCc2ccc(F)cc2)nc1N [FLUPIRTINE MALEATE],IC50,[5],65.4 µM (inactive)
same,IC50,[6],26.6 µM (active)
